Test results as given in ChEMBL document CHEMBL1151056, “The preparation and utilization of paraherquamide-2-O-methyl imidate in the synthesis of 14-O-substituted paraherquamide derivatives” (Bioorg Med Chem Lett, 1992).
In brackets after ≈: the same amount, converted by molar mass. Blank lines part the entries; values can stand above or below the compound they belong to.

What was measured:
Caenorhabditis elegans = assay: In vitro inhibition against Caenorhabditis elegans motility for anthelmintic activity was measured; type: functional, organism-based
Ovis aries [1] = assay: Evaluated for the anthelmintic activity against Haemonchus contortus in sheep at dose of 2 mg/kg; value ranges from 91-100%; type: functional
Ovis aries [2] = assay: Evaluated for the anthelmintic activity against Trichostrongylus colubriformis in sheep at dose of 0.5 mg/kg; value ranges from 91-100%; type: functional
Ovis aries [3] = assay: Evaluated for the anthelmintic activity against Oesophagostomum columbianum in sheep at dose of 0.5 mg/kg; type: functional
Ovis aries [4] = assay: Evaluated for the anthelmintic activity against Oesophagostomum columbianum in sheep at dose of 2 mg/kg; value ranges from 51-75%; type: functional
Ovis aries [5] = assay: Evaluated for the anthelmintic activity against Haemonchus contortus in sheep at dose of 0.5 mg/kg; value ranges from 91-100%; type: functional
Ovis aries [6] = assay: Evaluated for the anthelmintic activity against Cooperia species in sheep at dose of 2 mg/kg; value ranges from 91-100%; type: functional
Ovis aries [7] = assay: Evaluated for the anthelmintic activity against Cooperia species in sheep at dose of 0.5 mg/kg; value ranges from 91-100%; type: functional
Ovis aries [8] = assay: Evaluated for the anthelmintic activity against Trichostrongylus colubriformis in sheep at dose of 2 mg/kg; value ranges from 91-100%; type: functional
Ovis aries [9] = assay: Evaluated for the anthelmintic activity against Ostertagia circumcincta in sheep at dose of 0.5 mg/kg; value ranges from 91-100%; type: functional
Ovis aries [10] = assay: Evaluated for the anthelmintic activity against Trichostrongylus axei in sheep at dose of 0.5 mg/kg; value ranges from 91-100%; type: functional
Ovis aries [11] = assay: Evaluated for the anthelmintic activity against Ostertagia circumcincta in sheep at dose of 2 mg/kg; value ranges from 91-100%; type: functional
Ovis aries [12] = assay: Evaluated for the anthelmintic activity against Trichostrongylus axei in sheep at dose of 2 mg/kg; value ranges from 91-100%; type: functional

IC50 (Caenorhabditis elegans): 70 µg/mL (≈ 138 µM)
SMILES: CO[C@]1(C)CCN2CC34CC5(C(=O)Nc6c5ccc5c6OC=CC(C)(C)O5)C(C)(C)C3CC21C(=O)N4C (stereo partly specified)

IC50 (Caenorhabditis elegans): 5 µg/mL (≈ 9.1 µM)
SMILES: CCCCO[C@]1(C)CCN2CC34CC5(C(=O)Nc6c5ccc5c6OC=CC(C)(C)O5)C(C)(C)C3CC21C(=O)N4C (stereo partly specified)

IC50 (Caenorhabditis elegans): 2 µg/mL (≈ 3.83 µM)
SMILES: CCO[C@]1(C)CCN2CC34CC5(C(=O)Nc6c5ccc5c6OC=CC(C)(C)O5)C(C)(C)C3CC21C(=O)N4C (stereo partly specified)

Continued, compound first:

SMILES: CNC(=O)N(C)C(=O)O[C@]1(C)CCN2CC34CC5(C(=O)Nc6c5ccc5c6OC=CC(C)(C)O5)C(C)(C)C3CC21C(=O)N4C (stereo partly specified)
IC50 (Caenorhabditis elegans): 60 µg/mL (≈ 98.7 µM)

SMILES: C#CCO[C@]1(C)CCN2CC34CC5(C(=O)Nc6c5ccc5c6OC=CC(C)(C)O5)C(C)(C)C3CC21C(=O)N4C (stereo partly specified)
IC50 (Caenorhabditis elegans): 7.5 µg/mL (≈ 14.1 µM)

SMILES: COCCOCO[C@]1(C)CCN2CC34CC5(C(=O)Nc6c5ccc5c6OC=CC(C)(C)O5)C(C)(C)C3CC21C(=O)N4C (stereo partly specified)
IC50 (Caenorhabditis elegans): 20 µg/mL (≈ 34.4 µM)

SMILES: C=CCO[C@]1(C)CCN2CC34CC5(C(=O)Nc6c5ccc5c6OC=CC(C)(C)O5)C(C)(C)C3CC21C(=O)N4C (stereo partly specified)
Reduction (Ovis aries [1]): 91%
Reduction (Ovis aries [2]): 91%
IC50 (Caenorhabditis elegans): 15 µg/mL (≈ 28.1 µM)
Reduction (Ovis aries [3]): <50%
Reduction (Ovis aries [4]): 51%
Reduction (Ovis aries [5]): 91%
Reduction (Ovis aries [6]): 91%
Reduction (Ovis aries [7]): 91%
Reduction (Ovis aries [8]): 91%
Reduction (Ovis aries [9]): 91%
Reduction (Ovis aries [10]): 91%
Reduction (Ovis aries [11]): 91%
Reduction (Ovis aries [12]): 91%

SMILES: CN1C(=O)C23CC4C1(CN2CC[C@@]3(C)OCc1ccccc1)CC1(C(=O)Nc2c1ccc1c2OC=CC(C)(C)O1)C4(C)C (stereo partly specified)
IC50 (Caenorhabditis elegans): 65 µg/mL (≈ 111 µM)

SMILES: CN1C(=O)C23CC4C1(CN2CC[C@@]3(C)O[Si](C)(C)C)CC1(C(=O)Nc2c1ccc1c2OC=CC(C)(C)O1)C4(C)C (stereo partly specified)
IC50 (Caenorhabditis elegans): 3 µg/mL (≈ 5.3 µM)
